Experimental findings from patent US20240002379A1, “ASYMMETRIC CONJUGATE COMPOUNDS” (Pheon Therapeutics Ltd., priority 2016, published 2024) are described below.

pIC50: −log10 of the molar value. “Also recorded” adds a separate entry of the source. Like-named read-outs stand apart in the source and are kept apart here.

In data set [1] the test system is FaDu (head and neck cancer) cell line. The data set is described as follows: MTT cytotoxicity assay, FaDu. The following applies: Homo sapiens, read-out: Cytotoxicity FaDu (nM, 72 hour). In kind it is cell-based. On the procedure: (§1) Tumor cell lines were maintained in RPMI1640 medium supplemented with 10% heat-inactivated fetal bovine serum, 2 mM L-glutamine and 1 mM sodium pyruvate. 1800 cells per well were seeded in a volume of 180 μl in a 96-well flat bottom polystyrene plate. The cells were allowed to adhere overnight at 37° C. in a CO2 incubator. Ligands were initially formulated in DMSO, and stocks stored at −80° C. They were then further formulated at lox concentration in RPMI1640 medium. 20 ul of diluted samples were added into each treatment well. On each plate, blank wells with no cells, and untreated wells containing cells, were included. Plates were then cultured at 37° C. in a CO2 incubator for 72 hrs. Cytotoxicity was evaluated using a tetrazolium salt-based assay, the MTT assay. After 72 hours, the supernatant was removed from each well and 200 μl of a sterile filtered 500 μg/ml MTT solution in water added to each well. The plates were then incubated at 37° C. in a CO2 incubator for 4 hrs. The supernatant was then removed and the formazan crystals formed solubilized by adding 150 μl of DMSO to each well. The plate was then read on a plate reader at 540 nm, and percentage cell survival calculated as follows: ((mean absorbance treated wells at concentration x−mean absorbance blank wells)[…](mean absorbance untreated wells at concentration x−mean absorbance blank wells))×100. Data were plotted as concentration in nM vs. % cell survival in Microsoft Excel, and IC50 values (concentration where cell survival is reduced by a half) were determined from the graph.
In general terms: Formazan colour is commonly taken as a measure of viable cells.

For data set [2], the system named is PC3 (prostate) cell line. The data set is described as follows: MTT cytotoxicity assay, PC3. In kind it is cell-based. The following applies: read-out: Cytotoxicity PC3 (nM, 72 hour). On the procedure: as §1
Data set [3] has as its system SW620 cell line (gastric). The data set is described as follows: MTT cytotoxicity assay, SW620. In kind it is cell-based. To be noted: read-out: Cytotoxicity SW620 (72 hours). Here is the method:
as §1

In data set [4] the test system is LIM1215 cell line (gastric). The data set is described as follows: MTT cytotoxicity assay, LIM1215. The following applies: read-out: Cytotoxicity LIM1215 (72 hours). Format: cell-based. On the procedure:
as §1

The test system of data set [5] is SW48 cell line (gastric). The data set is described as follows: MTT cytotoxicity assay, SW48. In kind it is cell-based. The following applies: read-out: Cytotoxicity SW48 (72 hrs). On the procedure:
as §1

Data set [6] has as its system three fluorescently labelled DNA sequences shown in FIG. 17. The data set is described as follows: FRET DNA melting, the three DNA sequences shown in FIG. 17 together. In kind it is binding. The following applies: for effect on melting temperature / DNA stabilisation: different concentrations, all three sequences, vs control DNA. From the text:
Further FRET DNA melting studies were undertaken on a number of molecules using three fluorescently labelled sequences. The sequences (FIG. 17) were designed to provide additional evidence that the series can form inter- and intrastrand cross-links. Inosines were inserted in place of traditional DNA bases in some cases to limit the number of binding sites available for the compounds to interact with. The short duplexes used in this FRET study are relatively unstable in the duplex form with a melting temperature below 30° C. so that, in the absence of ligand, a large part of the melting occurs below the starting temperature of the experiment. […] Increasing concentrations of 13 cause a greater amount of the melting transition to appear at the higher temperature (i.e. a greater number of the DNA molecules are cross-linked). A greater effect for 5′-AIIAGAITTTI′-3′ can be observed at lower concentrations of 13.
Oligonucleotides were obtained from ATDbio (Southampton, UK) in lyophilised form. They were labelled with a fluorophore molecule (F=fluorescein) at the 5′-end and a quencher molecule (Q=dabcyl) at the 3′-end of the complementary strand. Each oligonucleotide was dissolved in distilled H2O to form stock solutions of 100 PM. Working solutions of 5 μM were prepared by diluting the stock solution with distilled H2O.
The following buffers were used: 250 mM phosphate buffer pH 7.4 (consisting of sodium dihydrogen phosphate and sodium phosphate diluted in distilled H2O) and 5 M sodium chloride buffer. A11 buffers and distilled H2O were filtered through a […] filter prior to use.
For the FRET experiments a stock solutions were prepared by dissolving compound (such as compound 13) in DMSO to give a concentration of 10 mM. From this stock solution, working solutions of the desired concentration were prepared by diluting the stock solution with distilled H2O.
The reaction mixture was comprised of 4 μL of 250 mM phosphate buffer (final concentration of 50 mM), 4 μL flourophor and 4 μL quencher molecule of the appropriate oligonucleotide for a final concentration of 0.2 PM, 4 μL 5 M sodium chloride (final concentration of 1 M NaCl), and 4 μL of distilled H2O. This mixture was heated in an Eppendorf tube at 90° C. for 1 min and slowly cooled down to room temperature. This process was carried out to anneal the single strands to double-stranded DNA. Following this, 4 μL of the ligand was added in the desired concentration and the mixture incubated overnight either at room temperature or 4° C. A control sample of DNA only was prepared by mixing 4 μL 250 mM phosphate buffer (final concentration of 50 mM) with 4 μL fluorophore-labelled and 4 μL quencher-labelled oligonucleotides (of the appropriate sequence) to give a final concentration of 0.2 PM, 4 μL 5 M sodium chloride (final concentration of 1 M NaCl) and 4 μL distilled H2O. This mixture was analysed without prior annealing.
Fluorescence melting profiles were measured using a Roche LightCycler using a total reaction volume of 20 μL. Initially, the samples were denatured by heating to 95° C. at a rate of 1° C. min^−1. The samples were then maintained at 95° C. for 5 min before annealing by cooling to 25° C. at 1° C. min^−1. The samples were then held at 25° C. for a further 5 min and finally melted by heating to 95° C. at 1° C. min^−1. Annealing steps and melting steps were all recorded and changes in fluorescence were measured at 520 nm.
Tm values were obtained from the first derivates of the melting profiles using the Roche LightCycler software.

Regarding `COc1cc2c(cc1OCCCCCC(=O)N1C[C@@H](CCl)c3c1cc(O)c1ccccc31)N=C[C@@H]1CCCCN1C2=O` [Compound 24, (S)-3-((6-((S)-1-(Chloromethyl)-5-hydroxy-1,2-dihydro-3H-benzo[e]indol-3-yl)-6-oxohexyl)oxy)-2-methoxy-7,8,9,10-tetrahydrobenzo-[e]pyrido[1,2-a][1,4]diazepin-12(6aH)-one], the IC50 in data set [1] (MTT assay, 72 hour incubation) is 1.83 nM; in data set [2] (MTT assay, 72 hour incubation), 0.12 nM.

`COc1cc2c(cc1OCCCC(=O)N1C[C@@H](CCl)c3c1cc(O)c1ccccc31)N=C[C@@H]1Cc3ccccc3CN1C2=O` [Compound 53, (S)-3-(4-((S)-1-(Chloromethyl)-5-hydroxy-1,2-dihydro-3H-benzo[e]indol-3-yl)-4-oxobutoxy)-2-methoxy-7,12-dihydrobenzo[5,6][1,4]-diazepino[1,2-b]isoquinolin-14(6aH)-one]: the IC50 was 0.65 nM in data set [1] (MTT assay, 72 hour incubation) and 0.02 nM in data set [2] (MTT assay, 72 hour incubation).

As for `COc1cc2c(cc1OCCCC(=O)N1C[C@@H](CCl)c3c1cc(OC(=O)N1CCN(C)CC1)c1ccccc31)N=C[C@@H]1CCCCN1C2=O` [Compound 55, (S)-1-(Chloromethyl)-3-(4-(((S)-2-methoxy-12-oxo-6a,7,8,9,10, 12-hexahydrobenzo[e]pyrido[1,2-a][1,4]diazepin-3-yl)oxy)butanoyl)-2,3-dihydro-1H-benzo[e]indol-5-yl 4-methylpiperazine-1-carboxylate], the IC50 is 1.5 nM in data set [1] (72 h) and 0.02 nM in data set [2] (72 h).

Regarding `COc1cc2c(cc1OCCCCCC(=O)N1C[C@@H](CCl)c3c1cc(OC(=O)N1CCN(C)CC1)c1ccccc31)N=C[C@@H]1CCCCN1C2=O` [Compound 57, (S)-1-(Chloromethyl)-3-(6-(((S)-2-methoxy-12-oxo-6a,7,8,9,10,12-hexahydrobenzo[e]pyrido[1,2-a][1,4]diazepin-3-yl)oxy)hexanoyl)-2,3-dihydro-1H-benzo[e]indol-5-yl 4-methylpiperazine-1-carboxylate], the IC50 in data set [1] (72 h) was over 10 nM; in data set [2] (72 h), 3 nM. Moreover, the pIC50 in data set [3] (Homo sapiens, SW-620, 72 h) was 8.96; in data set [4] (LIM1215, 72 h), 9.39; in data set [5] (Homo sapiens, SW48, 72 h), 10.38.

As to `COc1cc2c(cc1OCCCC(=O)N1C[C@@H](CCl)c3c1cc(OC(=O)N1CCN(C)CC1)c1ccccc31)N=C[C@@H]1Cc3ccccc3CN1C2=O` [Compound 61, (S)-1-(Chloromethyl)-3-(4-(((S)-2-methoxy-14-oxo-6a,7,12,14-tetrahydrobenzo[5,6][1,4]diazepino[1,2-b]isoquinolin-3-yl)oxy)butanoyl)-2,3-dihydro-1H-benzo[e]indol-5-yl 4-methylpiperazine-1-carboxylate], the IC50 in data set [1] (72 h) and in data set [2] (72 h) was over 10 nM in each case.

As to `CC(C)(C)OC(=O)N1CC2CC23C1=CC(=O)c1ccccc13` [Compound 83, tert-Butyl (8bR,9aS)-4-oxo-9,9a-dihydro-1H-benzo[e]cyclopropa[c]indole-2(4H)-carboxylate], the pIC50 in data set [3] (MTT assay, 72 hour incubation) is 5.45; in data set [4] (MTT assay, 72 hour incubation), 5.54; in data set [5] (MTT assay, 72 hour incubation), 5.36. Besides, the “effect on melting temperature / DNA stabilisation” value in data set [6] was “do not increase”. In data set [6] (middle sequence and bottom sequence in FIG. 17 (both AT-rich)), the “degree of DNA stabilisation” value is given as “very small degree of stabilisation”.

With `COc1cc2c(cc1OCCCC(=O)N1C[C@@H](CCl)c3c1cc(O)c1ccccc31)NC(=O)[C@@H]1CCCCN1C2=O` [Compound 149, (S)-3-(4-((S)-1-(Chloromethyl)-5-hydroxy-1,2-dihydro-3H-benzo[e]indol-3-yl)-4-oxobutoxy)-2-methoxy-7,8,9,10-tetrahydrobenzo[e]-pyrido[1,2-a][1,4]diazepine-6,12(5H,6aH)-dione], the “effect on melting temperature / DNA stabilisation” value in data set [6] is recorded as “limited increase”.

For `COc1cc2c(cc1OCCCC(=O)N1C[C@@H](CCl)c3c1cc(OC(=O)N1CCN(C)CC1)c1ccccc31)NC(=O)[C@@H]1CCCCN1C2=O` [Compound 150, (S)-1-(Chloromethyl)-3-(4-(((S)-2-methoxy-6,12-dioxo-5,6,6a,7,8,9,10,12-octahydrobenzo[e]pyrido[1,2-a][1,4]diazepin-3-yl)oxy)butanoyl)-2,3-dihydro-1H-benzo[e]indol-5-yl 4-methylpiperazine-1-carboxylate], the “effect on melting temperature / DNA stabilisation” value in data set [6] is “negligible DNA stabilisation; also recorded: do not increase”.

For the molecule `COc1cc2c(cc1OCCCC(=O)N1C[C@@H](C)c3c1cc(O)c1ccccc31)N=C[C@@H]1CCCCN1C2=O` [Compound 152, (S)-3-(4-((S)—S-Hydroxy-1-methyl-1,2-dihydro-3H-benzo[e]indol-3-yl)-4-oxobutoxy)-2-methoxy-7,8,9,10-tetrahydrobenzo[e]pyrido[1,2-a][1,4]diazepin-12(6aH)-one], the “effect on melting temperature / DNA stabilisation” value in data set [6] is given as “limited increase”. Besides, the “ΔTm compared to the active G-A cross-linker 42” value in data set [6] (three sequences of FIG. 17) is on record as “large decrease in the ΔTm value”.
